Measurements reported in EPA's ToxRefDB 2.

What was measured:
mouse [1] = details: Multigenerational reproductive toxicity study, cd1, Oral, Water, dose end: 2 generation
mouse [2] = details: Carcinogenicity, cd1, Oral, Feed, dose end: 90 week
dog = details: Chronic toxicity, beagle, Oral, Feed, dose end: 52 week
rat [3] = details: Combined chronic toxicity/carcinogenicity, fischer, Oral, Feed, dose end: 24 month
rabbit [4] = details: Prenatal developmental toxicity study; himalayan; Inhalation; Whole-Body; dose end: 29 GD; group: developmental; developmental / developmental malformation / heart / adhesions + developmental / developmental malformation / kidney / dilatation
rat [5] = details: Prenatal developmental toxicity study; wistar; Inhalation; Whole-Body; dose end: 20 GD; group: developmental; developmental / developmental malformation / heart / dilatation
rabbit [6] = details: Prenatal developmental toxicity study, dutch, Inhalation, Whole-Body, dose end: 18 GD
rat [7] = details: Prenatal developmental toxicity study, fischer, Inhalation, Whole-Body, dose end: 15 GD
rat [8] = details: Prenatal developmental toxicity study, sprague dawley, Inhalation, Whole-Body, dose end: 15 GD
rat [9] = details: Prenatal developmental toxicity study, sprague dawley, Inhalation, Whole-Body, dose end: 15 GD; remark: listed apart in the source
rabbit [10] = details: Prenatal developmental toxicity study, new zealand white, Inhalation, Whole-Body, dose end: 18 GD
rat [11] = details: Prenatal developmental toxicity study, sprague dawley, Oral, Gavage/Intubation, dose end: 20 GD
rat [12] = details: Multigenerational reproductive toxicity study, wistar, Oral, Feed, dose end: 2 generation
rabbit [13] = details: Prenatal developmental toxicity study, new zealand white, Oral, Gavage/Intubation, dose end: 28 GD
rabbit [14] = details: Prenatal developmental toxicity study, new zealand white, Oral, Gavage/Intubation, dose end: 18 GD
rat [15] = details: Prenatal developmental toxicity study, sprague dawley, Oral, Gavage/Intubation, dose end: 15 GD
[16] = group: offspring, systemic / in life observation / body weight / offspring (pup) weight
[17] = group: parental, systemic / organ weight / kidney / relative to body weight + systemic / organ weight / epididymis / relative to body weight + systemic / …
[18] = group: cholinesterase, cholinesterase / cholinesterase / cholinesterase / brain cholinesterase (che) + cholinesterase / cholinesterase / cholinesterase / …
[19] = group: systemic, systemic / hematology / mean corpuscular (cell) volume (mcv) / mean corpuscular (cell) volume (mcv) + systemic / hematology / mean …
[20] = group: cholinesterase, cholinesterase / cholinesterase / cholinesterase / plasma cholinesterase (che)
[21] = group: cholinesterase, cholinesterase / cholinesterase / cholinesterase / plasma cholinesterase (che) + cholinesterase / cholinesterase / cholinesterase / …
[22] = group: systemic, systemic / hematology / erythrocyte (rbc) count differential / erythrocyte (rbc) + systemic / hematology / hematocrit (hct) / hematocrit (…
[23] = group: systemic, systemic / clinical chemistry / alanine aminotransferase (alt/sgpt) / alanine aminotransferase (alt/sgpt) + systemic / clinical chemistry / …
[24] = group: developmental, developmental / developmental malformation / bone / delayed ossification + developmental / developmental malformation / bone / misaligned + …
[25] = group: maternal, reproductive / reproductive performance / postimplantation loss / postimplantation loss + systemic / hematology / hemoglobin (hgb) / …
[26] = group: developmental, developmental / developmental malformation / bone / [other] + developmental / developmental malformation / bone / bipartite ossification + …
[27] = group: developmental, developmental / developmental malformation / bone / incomplete ossification + developmental / developmental malformation / bone / unossified
[28] = group: maternal, reproductive / reproductive performance / implantations / implantations + systemic / hematology / erythrocyte (rbc) count differential / …
[29] = group: maternal, systemic / organ weight / liver / absolute
[30] = group: developmental, developmental / developmental malformation / bone / [other] + developmental / developmental malformation / bone / fused + developmental / …
[31] = group: developmental, developmental / developmental malformation / bone / [other] + developmental / developmental malformation / heart / [other] + systemic / in …
[32] = group: maternal, reproductive / reproductive performance / resorptions / resorptions
[33] = group: developmental, developmental / developmental malformation / bone / wavy + developmental / developmental malformation / general / [other] + developmental / …
[34] = group: developmental, developmental / developmental malformation / general / [other] + systemic / in life observation / body weight / fetal weight
[35] = group: developmental, developmental / developmental malformation / bone / [other] + developmental / developmental malformation / bone / absent + developmental / …
[36] = group: maternal, reproductive / reproductive performance / estrous cycle / corpora lutea + reproductive / reproductive performance / implantations / …
[37] = group: developmental, developmental / developmental malformation / bone / incomplete ossification + developmental / developmental malformation / bone / short + …
[38] = group: maternal, systemic / in life observation / body weight / body weight gain + systemic / in life observation / clinical signs / salivation + systemic / …
[39] = group: offspring, developmental / offspring survival late / viability index / viability index + systemic / in life observation / body weight / offspring (pup…
[40] = group: parental, systemic / pathology microscopic / thyroid gland / colloid content
[41] = group: parental, systemic / pathology microscopic / thyroid gland / colloid content + systemic / organ weight / thyroid gland / absolute + systemic / organ …
[42] = group: developmental, developmental / developmental malformation / bone / [other] + developmental / developmental malformation / bone / extra ossification site + …
[43] = group: maternal, systemic / in life observation / body weight / body weight gain + systemic / in life observation / food consumption / food consumption
[44] = group: developmental, developmental / developmental malformation / bone / full supernumerary
[45] = group: maternal, systemic / in life observation / body weight / body weight gain + systemic / in life observation / food consumption / food consumption + …
[46] = group: developmental, developmental / developmental malformation / bone / bent + developmental / developmental malformation / bone / full supernumerary + …
[47] = group: maternal, systemic / in life observation / body weight / body weight gain
[48] = group: maternal, systemic / in life observation / body weight / body weight gain + systemic / in life observation / clinical signs / urine staining - …

CC(=O)OCCOCCOCCOC(C)=O [Triethylene glycol diacetate]
LEL (mouse [1]; [16]): 4000 mg/kg/day
LOAEL (mouse [1]; [16]): > 4000 mg/kg/day
NEL (mouse [1]; [16]): 2000 mg/kg/day
NOAEL (mouse [1]; [16]): ≥ 4000 mg/kg/day
NEL (mouse [1]; group: parental, systemic / organ weight / kidney / relative to body weight): 2000 mg/kg/day
LEL (mouse [1]; [17]): 4000 mg/kg/day
LOAEL (mouse [1]; [17]): > 4000 mg/kg/day
NOAEL (mouse [1]; [17]): ≥ 4000 mg/kg/day

CCCCSP(=O)(SCCCC)SCCCC [Tribufos]
LEL (mouse [2]; [18]): 1.64 mg/kg/day
LOAEL (mouse [2]; [18]): 1.64 mg/kg/day
NEL (mouse [2]; [18]): < 1.64 mg/kg/day
NOAEL (mouse [2]; [18]): < 1.64 mg/kg/day
LEL (mouse [2]; [19]): 1.64 mg/kg/day
LOAEL (mouse [2]; [19]): 1.64 mg/kg/day
NEL (mouse [2]; [19]): < 1.64 mg/kg/day
NOAEL (mouse [2]; [19]): < 1.64 mg/kg/day
LEL (dog; [20]): 0.4 mg/kg/day
LOAEL (dog; [20]): 0.4 mg/kg/day
NEL (dog; [21]): 0.1 mg/kg/day
NOAEL (dog; [21]): 0.1 mg/kg/day
LOAEL (dog; group: systemic, systemic / hematology / erythrocyte (rbc) count differential / erythrocyte (rbc)): 1.7 mg/kg/day
LEL (dog; [22]): 1.7 mg/kg/day
NEL (dog; [22]): 0.4 mg/kg/day
NOAEL (dog; [22]): 0.4 mg/kg/day
LEL (rat [3]; [20]): 0.2 mg/kg/day
LOAEL (rat [3]; [20]): 0.2 mg/kg/day
NEL (rat [3]; [20]): < 0.2 mg/kg/day
NOAEL (rat [3]; [20]): < 0.2 mg/kg/day
LEL (rat [3]; [23]): 1.8 mg/kg/day
LOAEL (rat [3]; [23]): > 16.8 mg/kg/day
NEL (rat [3]; [23]): 0.2 mg/kg/day
NOAEL (rat [3]; [23]): ≥ 16.8 mg/kg/day

CC(C)CO [2-Methyl-1-propanol]
LEL (rabbit [4]): 10 mg/L
LOAEL (rabbit [4]): > 10 ppm
NEL (rabbit [4]): 2.5 ppm
NOAEL (rabbit [4]): ≥ 10 ppm
LEL (rat [5]): 10 ppm
LOAEL (rat [5]): > 10 ppm
NEL (rat [5]): 2.5 ppm
NOAEL (rat [5]): ≥ 10 ppm

CCOCCOC(C)=O [2-Ethoxyethyl acetate]
LOAEL (rabbit [6]; [24]): > 400 ppm
NEL (rabbit [6]; [24]): 25 ppm
NOAEL (rabbit [6]; [24]): ≥ 400 ppm
LEL (rabbit [6]; group: developmental, developmental / developmental malformation / bone / delayed ossification + developmental / developmental malformation / spleen / pale + …): 100 ppm
LEL (rabbit [6]; [25]): 400 ppm
LOAEL (rabbit [6]; [25]): > 400 ppm
NEL (rabbit [6]; [25]): 100 ppm
NOAEL (rabbit [6]; [25]): ≥ 400 ppm
LOAEL (rat [7]; [26]): > 300 ppm
NOAEL (rat [7]; [26]): ≥ 300 ppm
LEL (rat [7]; [27]): 50 ppm
NEL (rat [7]; [27]): < 50 ppm
LOAEL (rat [7]; [28]): > 300 ppm
NOAEL (rat [7]; [28]): ≥ 300 ppm
LEL (rat [7]; [29]): 50 ppm
NEL (rat [7]; [29]): < 50 ppm
LOAEL (rat [8]; [30]): > 600 mg/kg/day
NOAEL (rat [8]; [30]): ≥ 600 mg/kg/day
LEL (rat [8]; [31]): 130 mg/kg/day
NEL (rat [8]; [31]): < 130 mg/kg/day
LEL (rat [8]; [32]): 390 mg/kg/day
LOAEL (rat [8]; [32]): > 600 mg/kg/day
NEL (rat [8]; [32]): 130 mg/kg/day
NOAEL (rat [8]; [32]): ≥ 600 mg/kg/day
LOAEL (rat [9]; [33]): > 600 ppm
NOAEL (rat [9]; [33]): ≥ 600 ppm
LEL (rat [9]; [34]): 130 ppm
NEL (rat [9]; [34]): < 130 ppm
LEL (rat [9]; [32]): 390 ppm
LOAEL (rat [9]; [32]): > 600 ppm
NEL (rat [9]; [32]): 130 ppm
NOAEL (rat [9]; [32]): ≥ 600 ppm
LOAEL (rabbit [10]; [35]): > 300 ppm
NEL (rabbit [10]; [35]): 50 ppm
NOAEL (rabbit [10]; [35]): ≥ 300 ppm
LEL (rabbit [10]; group: developmental, developmental / developmental malformation / bone / incomplete ossification + developmental / developmental malformation / bone / misshapen…): 100 ppm
LOAEL (rabbit [10]; [36]): > 300 ppm
NEL (rabbit [10]; [36]): 50 ppm
NOAEL (rabbit [10]; [36]): ≥ 300 ppm
LEL (rabbit [10]; group: maternal, systemic / hematology / platelet / platelet + systemic / in life observation / body weight / body weight gain + systemic / in life …): 100 ppm

Cc1[nH]n(C)c(=O)c1C(=O)c1ccc(C(F)(F)F)cc1S(C)(=O)=O [Pyrasulfotole]
LEL (rat [11]; [37]): 100 mg/kg/day
LOAEL (rat [11]; [37]): 100 mg/kg/day
NEL (rat [11]; [37]): 10 mg/kg/day
NOAEL (rat [11]; [37]): 10 mg/kg/day
LEL (rat [11]; [38]): 100 mg/kg/day
LOAEL (rat [11]; [38]): 100 mg/kg/day
NEL (rat [11]; [38]): 10 mg/kg/day
NOAEL (rat [11]; [38]): 10 mg/kg/day
LEL (rat [12]; [39]): 3.68 mg/kg/day
LOAEL (rat [12]; [39]): > 354 mg/kg/day
NEL (rat [12]; [39]): < 3.68 mg/kg/day
NOAEL (rat [12]; [39]): ≥ 354 mg/kg/day
LOAEL (rat [12]; [40]): 2.5 mg/kg/day
NOAEL (rat [12]; [40]): < 2.5 mg/kg/day
LEL (rat [12]; [41]): 2.5 mg/kg/day
NEL (rat [12]; [41]): < 2.5 mg/kg/day
LEL (rabbit [13]; [42]): 75 mg/kg/day
LOAEL (rabbit [13]; [42]): 75 mg/kg/day
NEL (rabbit [13]; [42]): 10 mg/kg/day
NOAEL (rabbit [13]; [42]): 10 mg/kg/day
LEL (rabbit [13]; [43]): 250 mg/kg/day
LOAEL (rabbit [13]; [43]): 250 mg/kg/day
NEL (rabbit [13]; [43]): 75 mg/kg/day
NOAEL (rabbit [13]; [43]): 75 mg/kg/day

O=C(O)COc1ccc(Cl)cc1Cl.OCCNCCO [2,4-Dichlorophenoxyacetic acid diethanolamine]
LEL (rabbit [14]; [44]): 60 mg/kg/day
LOAEL (rabbit [14]; [44]): > 60 mg/kg/day
NEL (rabbit [14]; [44]): 30 mg/kg/day
NOAEL (rabbit [14]; [44]): ≥ 60 mg/kg/day
LEL (rabbit [14]; [43]): 30 mg/kg/day
LOAEL (rabbit [14]; [43]): 30 mg/kg/day
NEL (rabbit [14]; [45]): 15 mg/kg/day
NOAEL (rabbit [14]; [45]): 15 mg/kg/day
LEL (rat [15]; [46]): 75 mg/kg/day
LOAEL (rat [15]; [46]): 75 mg/kg/day
NEL (rat [15]; [46]): 15 mg/kg/day
NOAEL (rat [15]; [46]): 15 mg/kg/day
LEL (rat [15]; [47]): 75 mg/kg/day
LOAEL (rat [15]; [47]): 75 mg/kg/day
NEL (rat [15]; [48]): 15 mg/kg/day
NOAEL (rat [15]; [48]): 15 mg/kg/day
